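These data come from cells grown in 96-well plates and exposed to compound for 48 hours at five concentrations. The concentration for 50% growth inhibition is given as GI50.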 Activity calls are given as the source filed them. Cut-off read from the data, not from the text of the source: active = GI50 up to about 1.1 µM and inactive = higher.
Experiments:
Assay in all cases: growth of human tumour cells (NCI), 48 h
UACC-62 = system: UACC-62
NCI-H23 = system: NCI-H23
IGROV-1 = system: IGROV-1
SF-295 = system: SF-295
MCF7 = system: MCF7
RXF 393 = system: RXF 393
HCT-15 = system: HCT-15
NCI-H460 = system: NCI-H460
786-0 = system: 786-0
SK-OV-3 = system: SK-OV-3
COLO 205 = system: COLO 205
DU-145 = system: DU-145
U-251 = system: U-251
OVCAR-3 = system: OVCAR-3
MDA-MB-231 = system: MDA-MB-231
CCRF-CEM = system: CCRF-CEM
NCI-H226 = system: NCI-H226
SK-MEL-5 = system: SK-MEL-5
MDA-N = system: MDA-N

Compound | GI50 (UACC-62) | GI50 (NCI-H23) | GI50 (IGROV-1) | GI50 (SF-295) | GI50 (MCF7) | GI50 (RXF 393) | GI50 (HCT-15) | GI50 (NCI-H460) | GI50 (786-0) | GI50 (SK-OV-3) | GI50 (COLO 205) | GI50 (DU-145) | GI50 (U-251) | GI50 (OVCAR-3) | GI50 (MDA-MB-231) | GI50 (CCRF-CEM) | GI50 (NCI-H226) | GI50 (SK-MEL-5) | GI50 (MDA-N)
Cc1n[nH]c(=O)n1/N=C/c1c[nH]c2ccccc12 | > 100 µM (inactive) | 80.5 µM (inactive) | 35.2 µM (inactive) | > 100 µM (inactive) | > 100 µM (inactive) | 20.9 µM (inactive) | > 100 µM | > 100 µM (inactive) | > 100 µM (inactive) | > 100 µM (inactive) | > 100 µM (inactive) | > 100 µM (inactive) | > 100 µM (inactive) | > 100 µM (inactive) | > 100 µM (inactive) | > 100 µM (inactive) |  |  | 
CCCCC(C)(C/C=C/[C@@H]1[C@@H](C(O)CCCCCC(=O)OC)C(=O)C[C@H]1O[Si](C)(C)C(C)(C)C)O[Si](C)(C)C (some centres not stated) | 91.8 µM (inactive) | > 100 µM (inactive) | > 100 µM (inactive) | > 100 µM (inactive) | 42 µM (inactive) | 54.2 µM (inactive) | 76.2 µM | 83.4 µM (inactive) | > 100 µM (inactive) | > 100 µM (inactive) | > 100 µM (inactive) | > 100 µM (inactive) | 57.5 µM (inactive) | 91 µM (inactive) | > 100 µM (inactive) | 25.8 µM (inactive) | > 100 µM (inactive) | 92.7 µM (inactive) | 
Nc1nc(N)c2nc(CNc3ccc(C(=O)NC(CCCCNC(=O)c4ccccc4C(=O)O)C(=O)O)cc3)cnc2n1 (configuration not stated) | 0.01 µM (active) | 0.0143 µM (active) | < 0.0113 µM (active) | < 0.0332 µM (active) | 0.01 µM (active) | 0.01 µM (active) | 0.01 µM | 0.01 µM (active) | 0.01 µM (active) | > 100 µM (inactive) | 0.01 µM (active) | 0.01 µM (active) | 0.01 µM (active) | > 100 µM (inactive) |  | 0.01 µM (active) | > 100 µM (inactive) | < 0.0119 µM (active) | 0.01 µM (active)
COC(=O)Nc1cc(OCCCOC(C)=O)c2[nH]c(C(=O)OC)cc2c1C[C@H](O)CO | > 100 µM (inactive) | > 100 µM (inactive) | 90.4 µM (inactive) | > 100 µM (inactive) | > 100 µM (inactive) |  | > 100 µM |  | > 100 µM (inactive) | > 100 µM (inactive) | > 100 µM (inactive) | > 100 µM (inactive) | > 100 µM (inactive) | > 100 µM (inactive) | > 100 µM (inactive) | > 100 µM (inactive) | > 100 µM (inactive) | > 100 µM (inactive) | > 100 µM (inactive)
Nc1nc2c(c(=O)[nH]1)NC(CO)CN2 (configuration not stated) | 84.7 µM (inactive) | > 100 µM (inactive) | > 100 µM (inactive) | 89.5 µM (inactive) |  | > 100 µM (inactive) | > 100 µM | > 100 µM (inactive) | > 100 µM (inactive) | > 100 µM (inactive) | > 100 µM (inactive) |  | > 100 µM (inactive) | > 100 µM (inactive) |  | 29.9 µM (inactive) | > 100 µM (inactive) |  | 
O=C1/C(=C/c2cccc3ccccc23)Cc2ccccc21 | 22.4 µM (inactive) | 17.1 µM (inactive) | 41.4 µM (inactive) |  | 5.93 µM (inactive) | 16.7 µM (inactive) | 34.9 µM | 36.6 µM (inactive) | 20.4 µM (inactive) | 18.6 µM (inactive) |  |  | 19.6 µM (inactive) | 27.1 µM (inactive) |  | 59.2 µM (inactive) | 10.5 µM (inactive) | 29.9 µM (inactive) | 
O=NC1c2cccc3cccc(c23)C1N=O (configuration not stated) |  | 8.87 µM (inactive) | 1.08 µM (active) | 9.31 µM (inactive) | 7.93 µM (inactive) | 3.51 µM (inactive) | 1.79 µM | 4.36 µM (inactive) | 12.9 µM (inactive) | 11 µM (inactive) | 3.17 µM (inactive) | 11.1 µM (inactive) | 3.1 µM (inactive) | 2.69 µM (inactive) |  | 1.19 µM (inactive) |  | 14 µM (inactive) | 3.84 µM (inactive)
O=C1/C(=C/c2cccc([N+](=O)[O-])c2)Cc2ccccc21 | > 100 µM (inactive) | 73.1 µM (inactive) | > 100 µM (inactive) | > 100 µM (inactive) | > 100 µM (inactive) |  | 72.8 µM | > 100 µM (inactive) | > 100 µM (inactive) | > 100 µM (inactive) | > 100 µM (inactive) | > 100 µM (inactive) | 60.1 µM (inactive) | > 100 µM (inactive) | > 100 µM (inactive) | > 100 µM (inactive) | > 100 µM (inactive) |  | > 100 µM (inactive)
COC(=O)C1(C(=O)OC)CC2=C(S(=O)(=O)c3ccccc3)C[C@@H](C#N)[C@H]2C1 |  | > 100 µM (inactive) | 52 µM (inactive) | > 100 µM (inactive) | 47.5 µM (inactive) |  | 37.9 µM | 91.4 µM (inactive) | > 100 µM (inactive) | > 100 µM (inactive) | > 100 µM (inactive) | > 100 µM (inactive) | > 100 µM (inactive) | 25.2 µM (inactive) | > 100 µM (inactive) | > 100 µM (inactive) | > 100 µM (inactive) | > 100 µM (inactive) | > 100 µM (inactive)
